What was measured:
[1] = system: horseweed; assay: Test C postemergence; format: in vivo, Erigeron canadensis; details: 10 days
How it was run: (§1)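 Seeds in loam–sand blend received preemergence directed soil spray of test chemicals in non-phytotoxic solvent with surfactant; postemergence treatment was applied at one- to two-leaf stage (2–10 cm). After 10 days in greenhouse, injury rated visually versus untreated controls, 0 (no effect) to 100 (complete control).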

[2] = system: pigweed, palmer; assay: Test C postemergence; format: in vivo, Amaranthus palmeri; details: 10 days
How it was run: as §1

[3] = system: kochia; assay: Test C postemergence; format: in vivo, Bassia scoparia; details: 10 days
How it was run: as §1

[4] = system: oat, wild; assay: Test C preemergence; format: in vivo, Avena fatua; details: for Oat, Wild plant response rating: preemergence, 0 to 100 scale (0 no effect, 100 complete control)
How it was run: as §1

[5] = system: rice; assay: Test D flooded paddy test; format: in vivo, Oryza sativa; details: 250 g ai/ha, applied to paddy water, visual rating after 13 to 14 days, scale 0 to 100 (0 no effect, 100 complete control)
How it was run: (§2)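 Post-flood water application at the 2-leaf stage; 3 cm flood depth kept constant; visual control rating 0–100 after 13–14 days greenhouse growth.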

[6] = system: galium; assay: Test C postemergence; format: in vivo, Galium aparine; details: 10 days
How it was run: as §1

[7] = system: oat, wild; assay: Test C postemergence; format: in vivo, Avena fatua; details: 10 days
How it was run: as §1

[8] = system: ryegrass, Italian; assay: Test C preemergence; format: in vivo, Lolium multiflorum; details: for Ryegrass, Italian plant response rating: preemergence, 0 to 100 scale (0 no effect, 100 complete control)
How it was run: as §1

[9] = system: sedge, umbrella; assay: Test D flooded paddy test; format: in vivo, Cyperus difformis; details: 250 g ai/ha, applied to paddy water, visual rating after 13 to 14 days, scale 0 to 100 (0 no effect, 100 complete control)
How it was run: as §2

[10] = system: wheat; assay: Test C preemergence; format: in vivo, Triticum aestivum; details: for Wheat plant response rating: preemergence, 0 to 100 scale (0 no effect, 100 complete control)
How it was run: as §1

[11] = system: barnyardgrass; assay: Test C preemergence; format: in vivo, Echinochloa crusgalli; details: for Plant response rating, Barnyardgrass: Preemergence; for Barnyardgrass plant response rating: preemergence
How it was run: as §1

[12] = system: kochia; assay: Test C preemergence; format: in vivo, Bassia scoparia; details: for Kochia plant response rating: preemergence, 0 to 100 scale (0 no effect, 100 complete control)
How it was run: as §1

[13] = system: barnyardgrass; assay: Test D flooded paddy test; format: in vivo, Echinochloa crus-galli; details: 250 g ai/ha, applied to paddy water, visual rating after 13 to 14 days, scale 0 to 100 (0 no effect, 100 complete control)
How it was run: as §2

[14] = system: green foxtail; assay: Test C postemergence; format: in vivo, Setaria viridis; details: 10 days
How it was run: as §1

[15] = system: ragweed; assay: Test C postemergence; format: in vivo, Ambrosia artemisiifolia; details: 10 days
How it was run: as §1

[16] = system: ryegrass, Italian; assay: Test C postemergence; format: in vivo, Lolium multiflorum; details: 10 days
How it was run: as §1

[17] = system: corn; assay: Test C preemergence; format: in vivo, Zea mays; details: for Corn plant response rating: preemergence, 0 to 100 scale (0 no effect, 100 complete control)
How it was run: as §1

[18] = system: soybean; assay: Test C postemergence; format: in vivo, Glycine max; details: 10 days
How it was run: as §1

[19] = system: green foxtail; assay: Test C preemergence; format: in vivo, Setaria viridis; details: for Foxtail, Green plant response rating: preemergence, 0 to 100 scale (0 no effect, 100 complete control)
How it was run: as §1

[20] = system: ducksalad; assay: Test D flooded paddy test; format: in vivo, Heteranthera limosa; details: 250 g ai/ha, applied to paddy water, visual rating after 13 to 14 days, scale 0 to 100 (0 no effect, 100 complete control)
How it was run: as §2

[21] = system: wheat; assay: Test C postemergence; format: in vivo, Triticum aestivum; details: 10 days
How it was run: as §1

[22] = system: soybean; assay: Test C preemergence; format: in vivo, Glycine max; details: for Soybean plant response rating: preemergence, 0 to 100 scale (0 no effect, 100 complete control)
How it was run: as §1

[23] = system: pigweed, palmer; assay: Test C preemergence; format: in vivo, Amaranthus palmeri; details: for Pigweed, Palmer plant response rating: preemergence, 0 to 100 scale (0 no effect, 100 complete control)
How it was run: as §1

[24] = system: blackgrass; assay: Test C preemergence; format: in vivo, Alopecurus myosuroides; details: for Plant response rating, Blackgrass: Preemergence; for Blackgrass plant response rating: preemergence
How it was run: as §1

[25] = system: ragweed; assay: Test C preemergence; format: in vivo, Ambrosia artemisiifolia; details: for Ragweed plant response rating: preemergence, 0 to 100 scale (0 no effect, 100 complete control)
How it was run: as §1

[26] = system: barnyardgrass; assay: Test C postemergence; format: in vivo, Echinochloa crusgalli; details: 10 days
How it was run: as §1

[27] = system: corn; assay: Test C postemergence; format: in vivo, Zea mays; details: 10 days
How it was run: as §1

[28] = system: blackgrass; assay: Test C postemergence; format: in vivo, Alopecurus myosuroides; details: 10 days
How it was run: as §1

[29] = 125 g ai/ha, postemergence, 0 to 100 scale, 0 no effect, 100 complete control
[30] = Postemergence, 500 g ai/ha, visual 0 to 100 scale (0 no effect, 100 complete control)
[31] = 500 g ai/ha, visual rating after 10 days, 0 to 100 scale (0 no effect, 100 complete control)
[32] = Test C, 125 g ai/ha, 0 to 100 scale (0 no effect, 100 complete control)
[33] = 500 g ai/ha, postemergence, 0 to 100 scale (0 no effect, 100 complete control)
[34] = Postemergence, 125 g ai/ha, 0 to 100 scale (0 no effect, 100 complete control)
[35] = Preemergence, 125 g ai/ha, 0 to 100 scale, 0 no effect, 100 complete control
[36] = 500 g ai/ha, 0 to 100 scale (0 no effect, 100 complete control)
[37] = 125 g ai/ha, 0 to 100 scale, 0 no effect, 100 complete control

## COc1ccc(-n2cnc(C(C)(C)O)n2)cc1C(=O)N1C[C@H](C)Oc2c(C)cccc21 [Compound 280]
[1]; [29]
  Plant response rating, Horseweed: 30
[1]; [30]
  Plant response rating, Horseweed: 60
[2]; [29]
  Plant response rating, Pigweed, Palmer: 70
[3]; [29]
  Plant response rating, Kochia: 60
[4]; 500 g ai/ha
  Oat, Wild plant response rating: 90
[4]; Test C, 125 g ai/ha
  Oat, Wild plant response rating: 60
[5]
  Plant response rating, Rice (Flood): 20
[6]; [29]
  Plant response rating, Galium: 100
[6]; [30]
  Plant response rating, Galium: 100
[7]; [29]
  Plant response rating, Oat, Wild: 80
[8]; 500 g ai/ha
  Ryegrass, Italian plant response rating: 90
[8]; Test C, 125 g ai/ha
  Ryegrass, Italian plant response rating: 90
[9]
  Plant response rating, Sedge, Umbrella (Flood): 95
[10]; 500 g ai/ha
  Wheat plant response rating: 90
[10]; Test C, 125 g ai/ha
  Wheat plant response rating: 70
[11]; [31]
  Plant response rating, Barnyardgrass: 100
[11]; [32]
  Barnyardgrass plant response rating: 100
[12]; 500 g ai/ha
  Kochia plant response rating: 100
[12]; Test C, 125 g ai/ha
  Kochia plant response rating: 90
[13]
  Plant response rating, Barnyardgrass (Flood): 25
[14]; [29]
  Plant response rating, Foxtail, Green: 60
[14]; [30]
  Plant response rating, Foxtail, Green: 90
[15]; [29]
  Plant response rating, Ragweed: 70
[16]; [29]
  Plant response rating, Ryegrass, Italian: 90
[17]; 500 g ai/ha
  Corn plant response rating: 60
[17]; Test C, 125 g ai/ha
  Corn plant response rating: 30
[18]; [29]
  Plant response rating, Soybean: 100
[19]; 500 g ai/ha
  Foxtail, Green plant response rating: 100
[19]; Test C, 125 g ai/ha
  Foxtail, Green plant response rating: 100
[20]
  Plant response rating, Ducksalad (Flood): 70
[21]; [29]
  Plant response rating, Wheat: 80
[22]; 500 g ai/ha
  Soybean plant response rating: 100
[22]; Test C, 125 g ai/ha
  Soybean plant response rating: 90
[23]; 500 g ai/ha
  Pigweed, Palmer plant response rating: 100
[23]; Test C, 125 g ai/ha
  Pigweed, Palmer plant response rating: 100
[24]; [31]
  Plant response rating, Blackgrass: 80
[24]; [32]
  Blackgrass plant response rating: 70
[25]; 500 g ai/ha
  Ragweed plant response rating: 100
[25]; Test C, 125 g ai/ha
  Ragweed plant response rating: 90
[26]; [29]
  Plant response rating, Barnyardgrass: 50
[26]; [30]
  Plant response rating, Barnyardgrass: 90
[27]; [29]
  Plant response rating, Corn: 90
[27]; [30]
  Plant response rating, Corn: 90
[28]; [29]
  Plant response rating, Blackgrass: 80
[28]; [30]
  Plant response rating, Blackgrass: 100

## Cc1ccc(-n2cnc(C(C)C)n2)cc1C(=O)N1CC(C(F)(F)F)Oc2c(Cl)cccc21 (stereo not shown) [Compound 354]
[1]; [33]
  Plant response rating, Horseweed: 80
[1]; [34]
  Plant response rating, Horseweed: 30
[2]; [33]
  Plant response rating, Pigweed, Palmer: 100
[2]; [34]
  Plant response rating, Pigweed, Palmer: 80
[3]; [33]
  Plant response rating, Kochia: 90
[3]; [34]
  Plant response rating, Kochia: 80
[4]; 500 g ai/ha
  Oat, Wild plant response rating: 90
[4]; [35]
  Plant response rating, Oat, Wild: 80
[5]
  Plant response rating, Rice (Flood): 0
[6]; [33]
  Plant response rating, Galium: 100
[6]; [34]
  Plant response rating, Galium: 100
[7]; [33]
  Plant response rating, Oat, Wild: 90
[7]; [34]
  Plant response rating, Oat, Wild: 60
[8]; 500 g ai/ha
  Ryegrass, Italian plant response rating: 100
[8]; [35]
  Plant response rating, Ryegrass, Italian: 90
[9]
  Plant response rating, Sedge, Umbrella (Flood): 0
[10]; 500 g ai/ha
  Wheat plant response rating: 90
[10]; [35]
  Plant response rating, Wheat: 30
[11]; [36]
  Barnyardgrass plant response rating: 100
[11]; [37]
  Plant response rating, Barnyardgrass: 90
[12]; 500 g ai/ha
  Kochia plant response rating: 80
[12]; [35]
  Plant response rating, Kochia: 0
[13]
  Plant response rating, Barnyardgrass (Flood): 0
[14]; [33]
  Plant response rating, Foxtail, Green: 90
[14]; [34]
  Plant response rating, Foxtail, Green: 40
[15]; [33]
  Plant response rating, Ragweed: 70
[15]; [34]
  Plant response rating, Ragweed: 50
[16]; [33]
  Plant response rating, Ryegrass, Italian: 70
[16]; [34]
  Plant response rating, Ryegrass, Italian: 20
[17]; 500 g ai/ha
  Corn plant response rating: 40
[17]; [35]
  Plant response rating, Corn: 20
[18]; [33]
  Plant response rating, Soybean: 100
[18]; [34]
  Plant response rating, Soybean: 100
[19]; 500 g ai/ha
  Foxtail, Green plant response rating: 100
[19]; [35]
  Plant response rating, Foxtail, Green: 100
[20]
  Plant response rating, Ducksalad (Flood): 0
[21]; [33]
  Plant response rating, Wheat: 60
[21]; [34]
  Plant response rating, Wheat: 30
[22]; 500 g ai/ha
  Soybean plant response rating: 100
[22]; [35]
  Plant response rating, Soybean: 50
[23]; 500 g ai/ha
  Pigweed, Palmer plant response rating: 100
[23]; [35]
  Plant response rating, Pigweed, Palmer: 100
[24]; [36]
  Blackgrass plant response rating: 90
[24]; [37]
  Plant response rating, Blackgrass: 80
[25]; 500 g ai/ha
  Ragweed plant response rating: 100
[25]; [35]
  Plant response rating, Ragweed: 10
[26]; [33]
  Plant response rating, Barnyardgrass: 70
[26]; [34]
  Plant response rating, Barnyardgrass: 30
[27]; [33]
  Plant response rating, Corn: 60
[27]; [34]
  Plant response rating, Corn: 20
[28]; [33]
  Plant response rating, Blackgrass: 20
[28]; [34]
  Plant response rating, Blackgrass: 0

— US20260262643A1, “HERBICIDAL BENZOXAZINES” (FMC CORPORATION, priority 2022, published 2026)
